Starred links: 1 amine or outer side, 2 acyl side, 3 side chain; linkers in the order of their positions; H or OH if unused. Non-standard residues stand in square brackets, D forms with d. Residues, ends and D or L forms follow the SMILES beside them. Groups on a side chain read outwards from the residue. *: point of attachment. γGlu = O=C(O)[C@H](CCC(=O)[*:2])N[*:1]; X1 = CC(C(=O)*)c1ccc(-c2ccccc2)c(F)c1
What was measured:
[1] = system: splenocytes; details: 80 µg/mL
[2] = system: Raw 264.7 mouse macrophages; details: 80 µg/mL
[3] = Dissolution and protein-induced hydrogelation / gel stability; type: physicochemical; details: coassembled hydrogel with OVA, room temperature (20-25 °C)
Description: 2.5 mg of compounds were dispersed in endotoxin-free PBS buffer solution (pH = 7.4) at a final concentration of 0.5 wt% with sodium carbonate to adjust the final pH to 7.4. Proteins were dispersed in endotoxin-free PBS buffer solution (pH = 7.4) at a final concentration of 10 μg/μL. The proteins were then evenly dispersed in the hydrogel by vortexing. The mixtures were maintained at 37°C for half hour and hydrogel then formed. The final concentration of the protein in the hydrogel was 500 μg/mL.
We then tested the coassembly property of Comp. 1 with the model protein antigen ovalbumin (OVA). Comp. […] After adding OVA to the solution (final protein concentration = 0.05 wt%), we observed rapid hydrogelation within 10 minutes (Figure 1C). The resulting hydrogel was stable for more than 3 months at room temperature (20-25 °C). The maximum proportion of the nanofibers composed of OVA was 50% for Comp. 1 (Figure S5 and S6).

[4] = biological target: T1, ovalbumin (OVA) (Gallus gallus, UniProt P01012); experiment: Microscale thermophoresis (MST) binding to OVA; details: Monolith NT.115, NT-647-labelled protein, PBS with 0.05% Tween-20, pH 7.4, Comp. 0.25 μM to 10 mM
T1 construct: purchased InvivoGen
T1 sequence (P01012 1-386): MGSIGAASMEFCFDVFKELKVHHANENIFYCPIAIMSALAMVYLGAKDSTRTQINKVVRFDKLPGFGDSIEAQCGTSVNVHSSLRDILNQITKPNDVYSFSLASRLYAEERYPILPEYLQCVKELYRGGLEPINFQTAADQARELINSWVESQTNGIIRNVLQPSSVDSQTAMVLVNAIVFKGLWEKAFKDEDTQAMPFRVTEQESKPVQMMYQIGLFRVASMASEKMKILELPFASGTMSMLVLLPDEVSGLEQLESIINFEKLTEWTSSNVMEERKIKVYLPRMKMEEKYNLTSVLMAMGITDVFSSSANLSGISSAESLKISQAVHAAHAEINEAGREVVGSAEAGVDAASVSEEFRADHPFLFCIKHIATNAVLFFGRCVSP
Description: For the interaction experiments of fluorescent-proteins with Comp. […] 1 or 2 at 1:1 volume ratio.

[5] = Antigen release assay (OVA release from hydrogel); type: physicochemical; details: physically encapsulated OVA, 0.2 wt% gel, 150 μL, 30 μg OVA-RBITC, PBS pH 7.4, 37 °C, absorbance 560 nm
Description: The released profiles of OVA-RBITC from Vac-1 and Vac-2 in vitro were studied at 37 °C. 150 μL of Vac-1 or Vac-2 (0.2 wt%) containing 30 μg of OVA-RBITC was used for the measurement. 150 μL PBS solution (pH = 7.4) was firstly added on top of the gel, 100 μL of solution was taken out at the desired time point and 100 μL of fresh PBS solutions was added back. The absorbance of OVA-RBITC was determined at 560 nm by a microplate reader (BioTek Synergy 4) to calculate the cumulative release rate of OVA-RBITC from hydrogel vaccines.

Compound	cell viability, splenocytes [1]	cell viability, Raw 264.7 [2]	stability of the resulting hydrogel [3]	binding affinity for OVA, in words [4]	cumulative OVA release within 16 hours [5]
CC(C(=O)NCC(=O)N[C@H](Cc1ccccc1)C(=O)N[C@H](Cc1ccccc1)C(=O)N[C@H](Cc1ccc(O)cc1)C(=O)N[C@H](CCCCNC(=O)CC[C@H](NC(=O)CC[C@H](N)C(=O)O)C(=O)O)C(N)=O)c1ccc(-c2ccccc2)c(F)c1 (some centres unmarked) [Comp. 1, Fbp-G^DF^DF^DY^DK(γE)2-NH2] (X1-G[dF][dF][dY][dK]([γGlu-γGlu])-NH2)	did not remarkably reduce the cell viability	did not remarkably reduce the cell viability	more than 3 months		
Fbp-G^DF^DF^DY [Comp. 2]				no measurable binding affinity	~100%
